In patent publication US8916565B2, “Pyrrolopyrazine-spirocyclic piperidine amides as modulators of ion channels” (priority 2011, dated 2014):

Target: human NaV subtype, like NaV 1.7 (Homo sapiens, UniProt Q15858)
Assay: E-VIPR optical membrane potential assay with electrical stimulation
Format: cell-based
Settings: active against one or more sodium channels; Table 3 does not name the assay or NaV subtype; read-out: Binned Activity Data (IC50)
From the text: Assays for Detecting and Measuring NaV Inhibition Properties of Compound E-VIPR Optical Membrane Potential Assay Method with Electrical Stimulation
Sodium channels are voltage-dependent proteins that can be activated by inducing membrane voltage changes by applying electric fields. The electrical stimulation instrument and methods of use are described in Ion Channel Assay Methods PCT/US01/21652, herein incorporated by reference and are referred to as E-VIPR. The instrument comprises a microtiter plate handler, an optical system for exciting the coumarin dye while simultaneously recording the coumarin and oxonol emissions, a waveform generator, a current- or voltage-controlled amplifier, and a device for inserting electrodes in well. Under integrated computer control, this instrument passes user-programmed electrical stimulus protocols to cells within the wells of the microtiter plate.
24 hours before the assay on E-VIPR, HEK cells expressing human NaV subtype, like NaV 1.7, are seeded in 384-well poly-lysine coated plates at 15,000-20,000 cells per well. Other subtypes are performed in an analogous mode in a cell line expressing the NaV of interest. HEK cells are grown in media (exact composition is specific to each cell type and NaV subtype) supplemented with 10% FBS (Fetal Bovine Serum, qualified; GibcoBRL #16140-071) and 1% Pen-Strep (Penicillin-Streptomycin; GibcoBRL #15140-122). Cells are grown in vented cap flasks, in 90% humidity and 10% CO2, to 100% confluence. They are usually split by trypsinization 1:10 or 1:20, depending on scheduling needs, and grown for 2-3 days before the next split.
Bath 1 buffer. Glucose 10 mM (1.8 g/L), Magnesium Chloride (Anhydrous), 1 mM (0.095 g/L), Calcium Chloride, 2 mM (0.222 g/L), HEPES 10 mM (2.38 g/L), Potassium Chloride, 4.5 mM (0.335 g/L), Sodium Chloride 160 mM (9.35 g/L).
Hexyl Dye Solution: Bath 1 Buffer+0.5% β-cyclodextrin (make this prior to use, Sigma #C4767), 8 μM CC2-DMPE+2.5 μM DiSBAC6(3). To make the solution Add volume of 10% Pluronic F127 stock equal to volumes of CC2-DMPE+DiSBAC6(3). The order of preparation is first mix Pluronic and CC2-DMPE, then add DiSBAC6(3) while vortexing, then add Bath 1+β-Cyclodextrin.
1) Pre-spot compounds (in neat DMSO) into compound plates. Vehicle control (neat DMSO), the positive control (20 mM DMSO stock tetracaine, 125 μM final in assay) and test compounds are added to each well at 160× desired final concentration in neat DMSO. Final compound plate volume will be 80 μL (80-fold intermediate dilution from 1 μL DMSO spot; 160-fold final dilution after transfer to cell plate). Final DMSO concentration for all wells in assay is 0.625%.
2) Prepare Hexyl Dye Solution.
3) Prepare cell plates. On the day of the assay, medium is aspirated and cells are washed three times with 100 μL of Bath 1 Solution, maintaining 25 μL residual volume in each well.
4) Dispense 25 μL per well of Hexyl Dye Solution into cell plates. Incubate for 20-35 minutes at room temp or ambient conditions.
5) Dispense 80 μL per well of Bath 1 into compound plates. Acid Yellow-17 (1 mM) is added and Potassium Chloride can be altered from 4.5 to 20 mM depending on the NaV subtype and assay sensitivity.
6) Wash cell plates three times with 100 μL per well of Bath1, leaving 25 μL of residual volume. Then transfer 25 uL per well from Compound Plates to Cell Plates. Incubate for 20-35 minutes at room temp/ambient condition
7) Read Plate on E-VIPR. Use the current-controlled amplifier to deliver stimulation wave pulses for typically 9 seconds and a scan rate of 400 Hz. A pre-stimulus recording is performed for 0.5 seconds to obtain the un-stimulated intensities baseline. The stimulatory waveform is applied for 9 seconds followed by 0.5 seconds of post-stimulation recording to examine the relaxation to the resting state.

Chain of human NaV subtype, like NaV 1.7 (Q15858 whole entry): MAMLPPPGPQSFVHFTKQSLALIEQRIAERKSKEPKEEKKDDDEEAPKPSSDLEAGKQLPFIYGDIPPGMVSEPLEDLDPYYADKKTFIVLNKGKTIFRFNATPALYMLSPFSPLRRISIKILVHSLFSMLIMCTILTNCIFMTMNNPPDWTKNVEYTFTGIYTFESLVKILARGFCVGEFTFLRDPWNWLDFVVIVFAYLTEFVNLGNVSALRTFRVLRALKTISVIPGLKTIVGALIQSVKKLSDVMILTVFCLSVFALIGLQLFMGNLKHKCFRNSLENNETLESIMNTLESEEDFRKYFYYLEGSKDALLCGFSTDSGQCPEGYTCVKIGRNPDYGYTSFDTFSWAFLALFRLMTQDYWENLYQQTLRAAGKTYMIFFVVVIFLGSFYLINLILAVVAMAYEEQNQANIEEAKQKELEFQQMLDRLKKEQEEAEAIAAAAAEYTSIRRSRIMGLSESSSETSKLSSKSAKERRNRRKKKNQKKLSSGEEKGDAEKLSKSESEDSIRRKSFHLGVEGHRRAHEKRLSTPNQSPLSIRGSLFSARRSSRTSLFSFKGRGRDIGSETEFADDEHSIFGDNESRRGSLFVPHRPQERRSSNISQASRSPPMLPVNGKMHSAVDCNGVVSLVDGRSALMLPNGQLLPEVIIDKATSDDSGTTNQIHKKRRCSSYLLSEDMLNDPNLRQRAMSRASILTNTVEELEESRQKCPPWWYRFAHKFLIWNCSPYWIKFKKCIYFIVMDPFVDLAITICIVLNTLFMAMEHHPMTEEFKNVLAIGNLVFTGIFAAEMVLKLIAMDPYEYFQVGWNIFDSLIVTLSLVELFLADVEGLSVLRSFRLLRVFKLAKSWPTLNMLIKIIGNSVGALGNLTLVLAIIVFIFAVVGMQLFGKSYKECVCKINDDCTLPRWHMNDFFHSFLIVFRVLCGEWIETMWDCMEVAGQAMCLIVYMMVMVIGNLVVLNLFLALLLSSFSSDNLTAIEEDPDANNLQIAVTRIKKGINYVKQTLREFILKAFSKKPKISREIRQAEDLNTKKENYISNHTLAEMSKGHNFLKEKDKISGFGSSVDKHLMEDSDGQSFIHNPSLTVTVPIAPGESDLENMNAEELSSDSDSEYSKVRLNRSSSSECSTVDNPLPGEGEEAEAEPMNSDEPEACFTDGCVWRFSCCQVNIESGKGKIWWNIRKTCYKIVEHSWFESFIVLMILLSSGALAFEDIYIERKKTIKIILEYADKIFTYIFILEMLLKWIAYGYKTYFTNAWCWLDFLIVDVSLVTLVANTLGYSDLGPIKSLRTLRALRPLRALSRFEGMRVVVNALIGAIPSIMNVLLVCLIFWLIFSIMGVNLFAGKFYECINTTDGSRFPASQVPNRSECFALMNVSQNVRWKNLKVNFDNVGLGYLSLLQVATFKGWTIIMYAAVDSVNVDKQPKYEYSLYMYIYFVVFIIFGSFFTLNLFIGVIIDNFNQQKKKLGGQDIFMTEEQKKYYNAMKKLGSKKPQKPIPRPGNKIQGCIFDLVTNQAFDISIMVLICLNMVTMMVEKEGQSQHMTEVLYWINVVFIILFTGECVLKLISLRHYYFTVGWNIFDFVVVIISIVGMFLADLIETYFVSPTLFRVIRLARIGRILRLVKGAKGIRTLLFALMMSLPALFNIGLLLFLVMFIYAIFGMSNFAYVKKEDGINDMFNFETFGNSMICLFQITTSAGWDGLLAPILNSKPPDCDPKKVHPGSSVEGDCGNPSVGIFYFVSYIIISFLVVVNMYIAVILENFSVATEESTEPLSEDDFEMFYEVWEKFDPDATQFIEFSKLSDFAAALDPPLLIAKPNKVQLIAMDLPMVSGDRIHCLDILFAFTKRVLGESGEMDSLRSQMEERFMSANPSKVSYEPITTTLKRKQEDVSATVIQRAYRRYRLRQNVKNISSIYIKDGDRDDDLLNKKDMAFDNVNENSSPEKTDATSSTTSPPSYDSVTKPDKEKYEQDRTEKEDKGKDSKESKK

Structure (SMILES) | IC50 [nM]
Cc1cc(C(=O)N2CCC3(CC2)c2ccc(C(=O)C(F)(F)F)n2CCN3C)ccc1OC(C)C [Compound 117] | ≤ 2000
COc1cc(C(=O)N2CCC3(CC2)c2c(F)cc(C(F)(F)F)n2CCN3C)ccc1OC(C)C [Compound 118] | ≤ 2000
CNC(=O)N1CCn2c(C(F)(F)F)ccc2C12CCN(C(=O)c1ccc(OC(C)C)c(OC)c1)CC2 [Compound 119] | ≤ 2000
Cc1cc(C(=O)N2CCC3(CC2)c2c(C#N)cc(C(F)(F)F)n2CCN3C)ccc1C(C)(C)O [Compound 120] | 2000 to 5000
COc1ccc(C(=O)N2CCC3(CC2)c2ccc(C(=O)C(F)(F)F)n2CCN3C)cc1F [Compound 121] | > 5000
CC(=O)c1ccc2n1CCN(C)C21CCN(C(=O)c2ccc(OC(C)C)c(C)c2)CC1 [Compound 122] | ≤ 2000
CN1CCn2c(C(F)(F)F)ccc2C12CCN(C(=O)c1ccc(S(=O)(=O)N3CCCC3)cc1)CC2 [Compound 123] | ≤ 2000
CC(C)Oc1ccc(C(=O)N2CCC3(CC2)c2ccc(C(=O)C4CC4)n2CCN3C)c(F)c1 [Compound 124] | ≤ 2000
CC(=O)c1ccc2n1CCN(C)C21CCN(C(=O)c2ccc(OC(C)C)cc2F)CC1 [Compound 125] | 2000 to 5000
COc1cc(C(=O)N2CCC3(CC2)c2ccc(C(=O)C(F)(F)F)n2C(C)(C)CN3C)ccc1OC(C)C [Compound 126] | 2000 to 5000
CCCOc1ccc(C(=O)N2CCC3(CC2)c2ccc(C(=O)C(F)(F)F)n2CCN3C)cc1 [Compound 127] | ≤ 2000
Cc1cc(C(=O)N2CCC3(CC2)NCC(C)(C)n2c(C(F)(F)F)ccc23)ccc1C(C)(C)O [Compound 128] | ≤ 2000
COc1ccc(C(=O)N2CCC3(CC2)NC(C)(C)Cn2c(C(=O)C(F)(F)F)ccc23)cc1Cl [Compound 129] | ≤ 2000
COc1ccc(C(=O)N2CCC3(CC2)c2ccc(C(=O)C(F)(F)F)n2CCN3C)cc1-c1ccccc1 [Compound 130] | 2000 to 5000
Cc1cc(C(=O)N2CCC3(CC2)NC(C)(C)Cn2c(C(=O)C(F)(F)F)ccc23)ccc1OC(C)C [Compound 131] | ≤ 2000
COc1ccc(C(=O)N2CCC3(CC2)c2ccc(C(=O)C4CC4)n2CCN3C)cc1C(F)(F)F [Compound 132] | ≤ 2000
COc1cc(C(=O)N2CCC3(CC2)NCCn2c(C(F)(F)F)ccc23)ccc1C(C)(C)CO [Compound 133] | ≤ 2000
CC(C)Oc1ccc(C(=O)N2CCC3(CC2)c2c(F)cc(C(F)(F)F)n2CCN3C)cc1C#N [Compound 134] | ≤ 2000
CC(C)Oc1ccc(C(=O)N2CCC3(CC2)NCCn2c(C(F)(F)F)ccc23)cc1Cl [Compound 135] | ≤ 2000
CN1CCn2c(C(=O)C(F)(F)F)ccc2C12CCN(C(=O)c1ccc(C(CO)OCC(F)(F)F)cc1)CC2 (centres unmarked) [Compound 136] | ≤ 2000
COc1cc(C(=O)N2CCC3(CC2)c2ccc(C(=O)C(C)(C)C)n2CCN3C)ccc1OC(C)C [Compound 137] | ≤ 2000
Cc1cc(C(=O)N2CCC3(CC2)c2ccc(C(F)(F)F)n2CCN3C(=O)N(C)C)ccc1OC(C)C [Compound 138] | ≤ 2000
CC(=O)c1cc2n(c1)CC(C)(C)NC21CCN(C(=O)c2ccc(OC(C)C)c(C(F)(F)F)c2)CC1 [Compound 139] | > 5000
Cc1cc(C(=O)N2CCC3(CC2)c2ccc(C(=O)C(C)C)n2CCN3C)ccc1O [Compound 140] | ≤ 2000
CC[C@H](C)Oc1ccc(C(=O)N2CCC3(CC2)c2c(F)cc(C(F)(F)F)n2CCN3C)cc1OC [Compound 141] | ≤ 2000
CCCOc1cc(C(=O)N2CCC3(CC2)c2ccc(C(=O)C(F)(F)F)n2CCN3C)ccc1OC [Compound 142] | ≤ 2000
CC(C)CCOc1ccc(C(=O)N2CCC3(CC2)c2ccc(C(=O)C(F)(F)F)n2CCN3C)cc1 [Compound 143] | ≤ 2000
COc1cc(C(=O)N2CCC3(CC2)c2ccc(C(=O)C(C)C)n2CCN3C)ccc1OC(C)C [Compound 144] | ≤ 2000
O=C(c1ccc(S(=O)(=O)NC2CC2)cc1)N1CCC2(CC1)c1ccc(C(F)(F)F)n1CCN2C1CCC1 [Compound 145] | > 5000
